The values that follow come from patent US20150315188A1, “COMPOUNDS AND METHODS FOR TREATMENT OF HYPERTENSION” (MEDIVATION TECHNOLOGIES, INC., priority 2012, published 2015).

Each structure is given as a SMILES string.

The target in assay [1] is T1, Human adrenergic α2B receptor (Homo sapiens, UniProt P18089).
T1 sequence (P18089 1-450): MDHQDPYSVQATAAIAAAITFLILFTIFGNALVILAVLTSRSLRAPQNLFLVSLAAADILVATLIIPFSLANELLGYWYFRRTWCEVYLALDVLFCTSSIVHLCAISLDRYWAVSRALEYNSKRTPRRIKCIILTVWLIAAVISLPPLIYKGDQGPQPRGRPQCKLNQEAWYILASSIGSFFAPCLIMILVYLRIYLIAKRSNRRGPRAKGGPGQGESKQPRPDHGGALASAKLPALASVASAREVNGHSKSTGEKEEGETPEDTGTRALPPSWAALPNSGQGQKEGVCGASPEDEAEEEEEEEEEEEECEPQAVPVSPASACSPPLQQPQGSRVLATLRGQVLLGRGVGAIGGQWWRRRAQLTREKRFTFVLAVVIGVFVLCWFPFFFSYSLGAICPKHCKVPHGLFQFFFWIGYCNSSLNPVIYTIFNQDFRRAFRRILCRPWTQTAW
The assay can be described thus: β-Arrestin GPCR functional assay, adrenergic α2B (Protocol B). It is filed as cell-based. The conditions noted are these: β-arrestin, antagonist vs nor-epinephrine EC80; read-out: IC50 Adrenergic α2B. The gist of the method: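 CHO cells overexpressing human α2B (PathHunter β-arrestin), 12,000 per well, 24 h at 37° C; compounds in 1% DMSO 30 min, then 50 nM norepinephrine (EC80) 90 min at 37° C.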

Assay [2] deals with T1, Human adrenergic α2B receptor. Briefly: Radioligand binding, adrenergic α2B (Protocol Group B). To be noted: Protocol Group B. On the set-up: purchased Milipore (Millipore). An outline of the steps: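 Compounds at various concentrations in 1% DMSO were tested on recombinant membranes in Tris-HCl pH 7.4 buffer containing MgCl2, CaCl2 and 0.2% BSA.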
In assay [3] the target is T2, Human adrenergic α1B receptor (Homo sapiens, UniProt P35368).
T2 sequence (P35368 1-520): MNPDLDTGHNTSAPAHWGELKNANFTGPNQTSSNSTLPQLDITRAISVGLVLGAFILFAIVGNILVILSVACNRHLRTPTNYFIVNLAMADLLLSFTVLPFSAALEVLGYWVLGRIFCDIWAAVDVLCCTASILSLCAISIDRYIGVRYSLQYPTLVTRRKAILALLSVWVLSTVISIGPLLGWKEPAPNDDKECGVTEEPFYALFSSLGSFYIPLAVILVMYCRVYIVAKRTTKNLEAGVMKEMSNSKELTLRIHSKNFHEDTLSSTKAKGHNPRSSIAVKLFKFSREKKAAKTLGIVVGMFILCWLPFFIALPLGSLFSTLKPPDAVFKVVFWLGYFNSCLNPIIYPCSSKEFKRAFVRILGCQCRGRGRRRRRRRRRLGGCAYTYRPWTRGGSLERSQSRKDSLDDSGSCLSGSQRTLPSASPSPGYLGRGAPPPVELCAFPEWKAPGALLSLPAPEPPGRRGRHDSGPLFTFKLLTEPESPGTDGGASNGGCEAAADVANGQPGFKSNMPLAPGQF
Briefly: Radioligand binding, adrenergic α1B (Protocol Group B). To be noted: Protocol Group B. More on the design: purchased Milipore (Millipore). The gist of the method:
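Values are percent inhibition of specific [3H]prazosin (0.3 nM) binding or estimated Ki, from filtration counting. Human α1B recombinant membranes, Tris-HCl pH 7.4 buffer with MgCl2 and EDTA, 60 min at 25 °C, 1% DMSO vehicle; 10 μM prazosin defined nonspecific binding.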

Assay [4] has as its target T2, Human adrenergic α1B receptor. The assay can be described thus: β-Arrestin GPCR functional assay, adrenergic α1B (Protocol B). To be noted: β-arrestin, antagonist vs nor-epinephrine EC80. It counts as cell-based. An outline of the steps:
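Antagonist mode: norepinephrine at its EC80 of 50 nM was added for 90 min at 37°C after a 30-min compound pretreatment of CHO cells expressing the human α1B receptor, with DMSO at 1% final. β-Arrestin recruitment read by chemiluminescence (60 min, RT, dark) and expressed as percent inhibition or IC50.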

`Cc1ccc2c(c1)c1c(n2CC(C)(O)c2ccnc(F)c2)CCN2CCCC12` (single isomer, unassigned) [48a]: the IC50 was determined as 20 nM in assay [1] and 45 nM in assay [4]. For the same compound, the inhibition at 0.01 µM in assay [2] (10 nM compound, read-out: Percentage inhibition of ligand binding, Adrenergic α2B (10 nM)) came to 93%. In addition, the inhibition at 0.03 µM in assay [2] (30 nM compound, read-out: Percentage inhibition of ligand binding, Adrenergic α2B (30 nM)) amounted to 94%. Also, the inhibition at 0.1 µM in assay [2] (0.1 μM compound, read-out: Percentage inhibition of ligand binding, Adrenergic α2B (0.1 μM)) came out at 94%; in assay [3] (0.1 μM compound, read-out: Percentage inhibition of ligand binding, Adrenergic α1B (0.1 μM)), 85%. Besides, the Ki in assay [2] (estimated Ki, read-out: Ki α2B) is 1.25 nM; in assay [3] (estimated Ki) it was 8.15 nM. In addition, the inhibition at 0.3 µM in assay [3] (0.3 μM compound, read-out: Percentage inhibition of ligand binding, Adrenergic α1B (0.3 μM)) was 94%.

In general, IC50 refers to the midpoint of a concentration-inhibition curve. A word on the inhibition: it is the relative decrease from the control value, in per cent. The Ki is the dissociation constant of the complex between target and ligand, obtained from inhibition or displacement.
